System: glutamine-PRPP amidotransferase from Ashbya gossypii
Experiment: Activity of glutamine-PRPP amidotransferase (Messenger and Zalkin method)
Type: biochemical
Conditions: wild-type enzyme, FIG. 1
Source text: The glutamine-PRPP amidotransferase from Ashbya gossypii is likewise inhibited by AMP or GMP (see Figure). The activity of glutamine-phosphoribosyl-pyrophosphate amidotransferase from Ashbya gossypii can be measured as described in Messenger and Zalkin (1979) J. Biol. Chem. 254, pages 3382-3392.
This can be shown, for example, by expressing the enzymes in Ashbya gossypii (see Example 11).
Measurement of the activity of Gln-PRPP amidotransferase from A. gossypii and of modified forms of the enzyme as a function of the concentration of adenosine 5′-monophosphate (AMP) and guanosine 5′-monophosphate (GMP).

Compound | inhibition of glutamine-PRPP amidotransferase from Ashbya gossypii
Nc1ncnc2c1ncn2[C@@H]1O[C@H](COP(=O)(O)O)[C@@H](O)[C@H]1O [AMP, adenosine 5′-monophosphate] | inhibited
Nc1nc2c(ncn2[C@@H]2O[C@H](COP(=O)(O)O)[C@@H](O)[C@H]2O)c(=O)[nH]1 [GMP, guanosine 5′-monophosphate] | inhibited

Reference: US6878536B2, “Phosphoriboxyl-pyrophosphate synthetase polypeptide” (BASF, priority 1997, dated 2005)
